# Source: publication PMC8881610 (Nature Communications, 2022)
# Numbering of substitutions follows the chain as printed.
# What was measured:
# Assay in all cases: cAMP accumulation assay (LANCE Ultra cAMP kit), GIPR WT, mutant or modified constructs
# Assay type in all cases: cell-based
# Set-up in all cases: acylated tirzepatide to the full-length or modified; Flag; expressed in transfected cells; host or cells: HEK293T
# [1] = target: T1, GIPR (Homo sapiens, UniProt P48546, F127A); details: GIPR F127A, HEK293T
# T1 sequence (P48546 22-466 F127A): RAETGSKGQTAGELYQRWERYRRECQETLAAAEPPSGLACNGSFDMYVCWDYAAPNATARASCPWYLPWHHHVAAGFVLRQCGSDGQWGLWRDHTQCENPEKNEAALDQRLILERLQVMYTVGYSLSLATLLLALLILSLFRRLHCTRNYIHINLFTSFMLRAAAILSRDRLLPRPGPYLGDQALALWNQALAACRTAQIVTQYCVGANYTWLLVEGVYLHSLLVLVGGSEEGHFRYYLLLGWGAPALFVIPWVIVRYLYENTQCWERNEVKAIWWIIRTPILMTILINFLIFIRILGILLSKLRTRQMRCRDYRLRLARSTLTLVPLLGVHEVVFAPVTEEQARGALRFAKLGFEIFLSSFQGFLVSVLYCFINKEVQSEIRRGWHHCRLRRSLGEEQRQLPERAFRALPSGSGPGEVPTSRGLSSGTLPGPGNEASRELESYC
# Outline: (§1)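 HEK293T cells transiently transfected with human GIPR WT or mutant constructs (pcDNA3.1), used after 24 h. The cells were stimulated with peptide agonists for 40 min at RT in HBSS with 5 mM HEPES, 0.1% BSA or casein, and 0.5 mM IBMX. cAMP was read by LANCE Ultra TR-FRET (Eu-cAMP tracer/ULight anti-cAMP, 1 h RT, 620/650 nm).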
# [2] = target: T2, GIPR (Homo sapiens, UniProt P48546, E135A); details: GIPR E135A, HEK293T
# T2 sequence (P48546 22-466 E135A): T1 sequence (P48546 22-466 F127A) with A106F, E114A
# Outline: as §1
# [3] = target: T3, GIPR (Homo sapiens, UniProt P48546, R370A); details: HEK-293T, GIPR R370A; HEK293T
# T3 sequence (P48546 22-466 R370A): T1 sequence (P48546 22-466 F127A) with A106F, R349A
# Outline: as §1
# [4] = read-out: cAMP pEC50 (converted)
compound,measurement,setting,value
CCCCCCCCCCCCCCCC(=O)N[C@@H](CCC(=O)NCCCC[C@H](NC(=O)[C@H](CC(=O)O)NC(=O)[C@H](CO)NC(=O)[C@@H](NC(=O)[C@H](Cc1ccccc1)NC(=O)[C@@H](NC(=O)CNC(=O)[C@H](CCC(N)=O)NC(=O)C(C)(C)NC(=O)[C@@H](N)Cc1c[nH]cn1)[C@@H](C)O)[C@@H](C)O)C(=O)N[C@@H](CO)C(=O)N[C@@H](CCCCN)C(=O)N[C@@H](Cc1ccc(O)cc1)C(=O)N[C@@H](CC(C)C)C(=O)N[C@@H](CC(=O)O)C(=O)N[C@@H](CCC(=O)O)C(=O)N[C@@H](CCCNC(=N)N)C(=O)N[C@@H](C)C(=O)N[C@@H](C)C(=O)N[C@@H](CCC(N)=O)C(=O)N[C@@H](CC(=O)O)C(=O)N[C@@H](Cc1ccccc1)C(=O)N[C@H](C(=O)N[C@@H](CCC(N)=O)C(=O)N[C@@H](Cc1c[nH]c2ccccc12)C(=O)N[C@@H](CC(C)C)C(=O)N[C@@H](CC(C)C)C(=O)N[C@@H](CC(=O)O)C(=O)NCC(=O)NCC(=O)N1CCC[C@H]1C(=O)N[C@@H](CO)C(=O)N[C@@H](CO)C(=O)NCC(=O)N[C@@H](C)C(=O)N1CCC[C@H]1C(=O)N1CCC[C@H]1C(=O)N1CCC[C@H]1C(=O)N[C@@H](CO)C(N)=O)C(C)C)C(=O)O [Peptide 20],EC50,[1]; [4],0.00457 nM
same,Emax,[1]; HEK-293T,100 ± 1.64%
same,EC50,[2]; [4],0.0427 nM
same,Emax,[2]; HEK-293T,100 ± 1.44%
same,Emax,[3],71.5 ± 2.85%
